Assay results: ChEMBL document CHEMBL5335837, “Reinvestigation of diphenylmethylpiperazine analogues of pyrazine as new class of Plasmodial cysteine protease inhibitors for the treatment of malaria” (RSC Med Chem, 2024)
Activity calls are given as the source filed them. The calls are words filed in the database; no cut-off is given here.

What was measured:
Erythrocyte = experiment: Hemolytic activity in human RBCs at 100 uM incubated for 2 hrs by microplate reader analysis; assay type: toxicity, cell-based
Plasmodium falciparum [1] = experiment: Antimalarial activity against Plasmodium falciparum 3D7 assessed as reduction in parasite growth incubated for 48 to 50 hrs by microplate reader analysis; assay type: functional, organism-based
Falcipain-3 = biological target: T1, Falcipain-3 (Plasmodium falciparum 3D7, UniProt Q8IIL0); experiment: Inhibition of Plasmodium falciparum FP3 using Z-Leu-Arg-AMC as substrate incubated for 30 mins by spectrofluorometry analysis
T1 sequence (Q8IIL0 whole entry): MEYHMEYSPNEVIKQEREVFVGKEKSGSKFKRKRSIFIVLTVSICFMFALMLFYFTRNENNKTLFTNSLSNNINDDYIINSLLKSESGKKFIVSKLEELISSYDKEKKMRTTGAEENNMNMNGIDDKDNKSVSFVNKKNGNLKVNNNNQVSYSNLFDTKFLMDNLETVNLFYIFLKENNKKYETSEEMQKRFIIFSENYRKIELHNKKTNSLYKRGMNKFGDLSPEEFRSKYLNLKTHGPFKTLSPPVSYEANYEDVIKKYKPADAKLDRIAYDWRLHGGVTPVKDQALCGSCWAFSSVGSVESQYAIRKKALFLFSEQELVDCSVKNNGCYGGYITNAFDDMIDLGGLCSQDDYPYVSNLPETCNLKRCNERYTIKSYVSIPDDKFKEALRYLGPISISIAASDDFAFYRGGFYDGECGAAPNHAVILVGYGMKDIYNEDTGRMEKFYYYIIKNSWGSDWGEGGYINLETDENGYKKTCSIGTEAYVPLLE

Falcipain 2 = biological target: T2, Falcipain 2 (Plasmodium falciparum, UniProt Q9N6S8); experiment: Inhibition of Plasmodium falciparum FP2 using Z-Leu-Arg-AMC as substrate incubated for 30 mins by spectrofluorometry analysis
T2 sequence (Q9N6S8 whole entry): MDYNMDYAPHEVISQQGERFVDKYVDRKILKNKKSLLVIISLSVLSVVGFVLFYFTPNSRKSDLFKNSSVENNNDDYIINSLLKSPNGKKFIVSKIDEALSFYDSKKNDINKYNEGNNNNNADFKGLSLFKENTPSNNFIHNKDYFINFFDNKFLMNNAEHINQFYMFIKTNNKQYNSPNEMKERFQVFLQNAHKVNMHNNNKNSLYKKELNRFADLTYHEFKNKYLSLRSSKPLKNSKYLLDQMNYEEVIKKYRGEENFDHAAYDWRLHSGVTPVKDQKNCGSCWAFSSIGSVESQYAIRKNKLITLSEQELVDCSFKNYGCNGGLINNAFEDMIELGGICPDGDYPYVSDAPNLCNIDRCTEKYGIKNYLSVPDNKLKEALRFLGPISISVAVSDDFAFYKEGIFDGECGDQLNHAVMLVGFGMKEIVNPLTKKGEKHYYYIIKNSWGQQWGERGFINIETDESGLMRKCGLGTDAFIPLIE

Vero = experiment: Cytotoxicity against african green monkey Vero cells upto 1000 uM measured after 72 hrs by MTT assay; assay type: toxicity, cell-based; conditions: chlorocebus sabaeus
[2] = Selectivity index, ratio of IC50 for cytotoxicity against human A549 cells to IC50 for antimalarial activity against Plasmodium falciparum W2; assay type: toxicity, cell-based; conditions: read-out: Ratio IC50
A549 = experiment: Anticancer activity against human A549 cells measured after 24 hrs by MTT assay; assay type: functional, cell-based; conditions: A549, 24 h
[3] = Selectivity index, ratio of IC50 for cytotoxicity against african green monkey vero cells to IC50 for antimalarial activity against Plasmodium falciparum 3D7; assay type: toxicity, cell-based; conditions: read-out: Ratio IC50
Plasmodium falciparum [4] = experiment: Antimalarial activity against Plasmodium falciparum W2 assessed as reduction in parasite growth incubated for 48 to 50 hrs by microplate reader analysis; assay type: functional, organism-based
Plasmodium falciparum [5] = experiment: Resistance index, ratio of IC50 for antimalarial activity against Plasmodium falciparum 3D7 to IC50 for antimalarial activity against Plasmodium falciparum W2; assay type: functional
[6] = Selectivity index, ratio of IC50 for cytotoxicity against african green monkey vero cells to IC50 for cytotoxicity against human A549 cells
[7] = Selectivity index, ratio of IC50 for cytotoxicity against human A549 cells to IC50 for antimalarial activity against Plasmodium falciparum 3D7; assay type: toxicity, cell-based; conditions: read-out: Ratio IC50
[8] = Selectivity index, ratio of IC50 for cytotoxicity against african green monkey vero cells to IC50 for antimalarial activity against Plasmodium falciparum W2; assay type: toxicity, cell-based; conditions: read-out: Ratio IC50
Plasmodium falciparum [9] = experiment: Antimalarial activity against Plasmodium falciparum 3D7 assessed as inhibition of parasite growth incubated for 72 hrs by confocal microscopy analysis; assay type: functional, organism-based; conditions: 3D7, 72 h
Plasmodium falciparum [10] = experiment: Antimalarial activity against Plasmodium falciparum Dd2 assessed as inhibition of parasite growth incubated for 72 hrs by confocal microscopy analysis; assay type: functional, organism-based; conditions: Dd2, 72 h
Plasmodium falciparum [11] = experiment: Antimalarial activity against Plasmodium falciparum 3D7 assessed as decrease in new ring formation at 3 times IC50 concentration incubated for 48 hrs by Geimsa staining based analysis; assay type: functional, organism-based
Plasmodium falciparum [12] = experiment: Antimalarial activity against Plasmodium falciparum 3D7 assessed as decrease in development of early trophozoite stage at 3 times IC50 incubated for 48 hrs by Geimsa staining based analysis; assay type: functional, organism-based
Plasmodium falciparum [13] = experiment: Antimalarial activity against ring stage Plasmodium falciparum 3D7 infected in human erythrocytes incubated for 48 to 50 hrs by YOYO-1 staining based FACS analysis; assay type: functional, organism-based; conditions: 3D7, Erythrocyte
[14] = Plasmodium falciparum, 3D7, read-out: IC50

| SMILES | Activity (Erythrocyte) | IC50 (Plasmodium falciparum [1]; [14]) | IC50 (Falcipain-3) | IC50 (Falcipain 2) | Activity (Vero) | selectivity ratio [2] | IC50 (A549) | selectivity ratio [3] | IC50 (Plasmodium falciparum [4]) | Ratio IC50 (Plasmodium falciparum [5]) | Ratio IC50 [6] | selectivity ratio [7] | selectivity ratio [8] | further results |
| --- | --- | --- | --- | --- | --- | --- | --- | --- | --- | --- | --- | --- | --- | --- |
| COc1cccc(C(c2ccc(Cl)c(Cl)c2)N2CCN(c3cnccn3)CC2)c1O (stereo not given) | Non-Toxic | 4.62 µM |  |  |  |  |  |  |  |  |  |  |  |  |
| CC(C)C[C@H](NC(=O)[C@H]1O[C@@H]1C(=O)O)C(=O)NCCCCN=C(N)N [E-64] |  |  | 0.116 µM | 0.0544 µM |  |  |  |  |  |  |  |  |  |  |
| COc1cccc(C(c2ccc(F)c(F)c2)N2CCN(c3cnccn3)CC2)c1O (stereo not given) | Non-Toxic | 13.5 µM | 27.6 µM | 24.3 µM | Non-Toxic | 26.1 | 203 µM | 74.1 | 7.78 µM | 1.73 | 4.92 | 15.1 | 129 |  |
| COc1ccc(C(c2cccc(OC)c2O)N2CCN(c3cnccn3)CC2)cc1 (stereo not given) | Non-Toxic | > 12.5 µM |  |  |  |  |  |  |  |  |  |  |  |  |
| FC(F)Oc1ccc(-c2nnc3cncc(OCCc4ccccc4)n23)cc1 |  |  |  |  |  |  |  |  |  |  |  |  |  | IC50 (Plasmodium falciparum [9]): 0.31 µM; IC50 (Plasmodium falciparum [10]): 0.54 µM |
| COc1cccc(C(c2ccc(F)c(Cl)c2)N2CCN(c3cnccn3)CC2)c1O (stereo not given) | Non-Toxic | 7.32 µM |  |  |  |  |  |  |  |  |  |  |  |  |
| Oc1ccccc1C(c1ccc(Cl)c(Cl)c1)N1CCN(c2cnccn2)CC1 (stereo not given) | Non-Toxic | 2.81 µM | 6.9 µM | 6.6 µM | Non-Toxic | 15 | 61.4 µM | 356 | 4.1 µM | 0.68 | 16.29 | 21.9 | 244 | Activity (Plasmodium falciparum [11]): Active; Activity (Plasmodium falciparum [12]): Active |
| CCN(CC)CCCC(C)Nc1ccnc2cc(Cl)ccc12 (stereo not given) [CHLOROQUINE] | Non-Toxic |  |  |  |  |  |  |  |  |  |  |  |  |  |
| Cc1ccc(C(c2ccccc2O)N2CCN(c3cnccn3)CC2)cc1 (stereo not given) | Non-Toxic | 3.76 µM |  |  |  |  |  |  |  |  |  |  |  |  |
| CCc1nc(N)nc(N)c1-c1ccc(Cl)cc1 [PYRIMETHAMINE] |  |  |  |  |  |  |  |  |  |  |  |  |  | IC50 (Plasmodium falciparum [13]): 0.015 µM |
| COc1ccc(C(c2ccccc2O)N2CCN(c3cnccn3)CC2)cc1 (stereo not given) | Non-Toxic | 17.2 µM | 33.9 µM | 31.1 µM | Non-Toxic | 240 | 514 µM | 58.1 | 2.14 µM | 8.04 | 1.95 | 29.9 | 467 | Activity (Plasmodium falciparum [11]): Active; Activity (Plasmodium falciparum [12]): Active |
| Oc1ccccc1C(c1ccc(C(F)(F)F)cc1)N1CCN(c2cnccn2)CC1 (stereo not given) | Non-Toxic | 1.78 µM | 9.6 µM | 8.5 µM | Non-Toxic | 1.89 | 59.5 µM | 562 | 31.4 µM | 0.06 | 16.8 | 33.4 | 31.9 | Activity (Plasmodium falciparum [11]): Active; Activity (Plasmodium falciparum [12]): Active |
| COc1cccc(C(c2ccc(OC(F)(F)F)cc2)N2CCN(c3cnccn3)CC2)c1O (stereo not given) | Non-Toxic | 3.5 µM | 14.4 µM | 11.4 µM | Non-Toxic | 21.6 | 47.1 µM | 286 | 2.18 µM | 1.6 | 21.23 | 13.5 | 459 |  |
| COc1cccc(C(c2ccc(C)cc2)N2CCN(c3cnccn3)CC2)c1O (stereo not given) | Non-Toxic | > 12.5 µM |  |  |  |  |  |  |  |  |  |  |  |  |
| COc1cccc(C(c2ccc(F)cc2)N2CCN(c3cnccn3)CC2)c1O (stereo not given) | Non-Toxic | > 12.5 µM |  |  |  |  |  |  |  |  |  |  |  |  |
| Oc1ccccc1C(c1ccc(F)cc1)N1CCN(c2cnccn2)CC1 (stereo not given) | Non-Toxic |  |  |  |  |  |  |  |  |  |  |  |  | IC50 (Plasmodium falciparum [1]): Not Determined(Insoluble) |
| Oc1ccccc1C(c1ccc(F)c(Cl)c1)N1CCN(c2cnccn2)CC1 (stereo not given) | Non-Toxic | 4.1 µM |  |  |  |  |  |  |  |  |  |  |  |  |
| COc1cccc(C(c2ccc(C(F)(F)F)cc2)N2CCN(c3cnccn3)CC2)c1O (stereo not given) | Non-Toxic | 3.05 µM | 6.8 µM | 6.2 µM | Non-Toxic | 27.7 | 120 µM | 328 | 4.35 µM | 0.7 | 8.3 | 39.5 | 230 | Activity (Plasmodium falciparum [11]): Active; Activity (Plasmodium falciparum [12]): Active |
| Oc1ccccc1C(c1ccc(F)c(F)c1)N1CCN(c2cnccn2)CC1 (stereo not given) | Non-Toxic | 3.91 µM |  |  |  |  |  |  |  |  |  |  |  |  |
| Oc1ccccc1C(c1ccc(OC(F)(F)F)cc1)N1CCN(c2cnccn2)CC1 (stereo not given) | Non-Toxic | 2.8 µM | 6.4 µM | 5.9 µM | Non-Toxic | 27.1 | 91.8 µM | 357 | 3.39 µM | 0.83 | 10.89 | 32.8 | 295 | Activity (Plasmodium falciparum [11]): Active; Activity (Plasmodium falciparum [12]): Active |
